Experimental findings from patent US20070254907A1, “COMPOSITIONS AND METHODS FOR CONTROLLING INFESTATION” (HATCHTECH PTY LTD, priority 2003, published 2007) are described below.

Each structure is given as a SMILES string. Where “and” joins values, the source holds several entries; their conditions need not be identical. Equal entries are not always repeated.

For test [1], the system named is house dust mite Dermatophagoides spp. Kind of test: House dust mite counts on treated filter paper. The conditions noted are these: over the 2 week period, 25° C., 75% RH. The format is in vivo. As for the experimental part: A filter paper (90 mm diameter) was taken and placed in a Petri dish of the same dimensions. The filter paper was then wetted throughout with the test compound, using a small air pump sprayer. The wetted filter paper was then allowed to dry in free flowing air. 200 mg dust mite medium, containing roughly 500 mites/g, was placed on the filter paper and the number of mites counted under a microscope. The arena was then left for 2 weeks on an incubator at 25° C. and 75% RH. After 2 weeks the number of mites in the arena was counted for a second time. This experiment was repeated 3 times with the test compound and a further 3 times using water as a control.

Test [2] has as its system proteases in egg shell washings (ESW) of lice eggs. Kind of test: Gelatin substrate SDS-PAGE of lice egg shell washings (ESW) incubated with protease inhibitors. The class given is biochemical, Pediculus humanus humanus. As for the experimental part:
Within 12 hours of hatching 50 body lice eggs (Pediculus humanus humanus) were removed from the hair and placed in a 1 mL eppendorf tube. 20 μL of distilled water was added to the unhatched eggs and the preparation incubated for 30 minutes at 32° C. The 20 μL was recovered, freeze dried and stored at −70° C. This sample was referred to as sample 1. A number of other samples were also collected as described. Sample 2 was collected by removing the unhatched louse eggs from four hairs that were approximately 3 cm long, cutting the hair into 0.5 cm lengths, and placing them into a microfuge tube containing 20 μl of distilled water and incubating at 32° C. for 30 minutes. Sample 3 was collected as for sample 2, but the hair was placed in a tube containing 10 mL of 1% sodium hypochlorite for 1 minute followed by five 1 minute washes in 25 mL of distilled water to remove the sodium hypochlorite before being incubated in a microfuge tube containing 20 μl of distilled water and incubated as for Sample 2. Sample 4 was collected from unhatched eggs which were removed from the hair and washed with 1% sodium hypochlorite and incubated in 20 μl of distilled water in the same manner as the hair in Sample 3. Finally, Sample 5 was collected from eggs that were within 24 hrs of hatching which were washed with 1% sodium hypochlorite, then returned to the incubator at 32° C. until they hatched, the empty egg shells collected 0-2 hrs after egg-hatching, placed in a 1 mL microfuge tube containing 20 μl of distilled water and incubated as for Samples 1-4. For all samples 1-5 the 20 μl of fluid was recovered, freeze-dried and stored at −70° C. The washings recovered from these freshly hatched egg shells are referred to as egg-shell-washings (ESWs). In order to look for the presence of proteases present in these different samples, the freeze-dried samples were resuspended in 15 μL of non-reducing SDS sample buffer, centrifuged at 10,000 g for 2 minutes and the entire 15 μL loaded on to 10% gelatine substrate SDS-PAGE gels. Gels were run at 4° C. for 10 minutes at 10 mA followed by a further 25 minutes at 15 mA per gel. They were then incubated for 2×20 minutes in a 2.5% Triton-X 100 solution followed by a three hour incubation in 0.1M Tris/HCl containing 1 mM CaCl2 pH 8.0. Activity was detected as clear areas on the gel the result of protease activity degrading the gelatine within the gel.
Protease activity in the ESWs from louse eggs was also examined using two-dimensional gel electrophoresis. It was necessary to collect large numbers of freshly hatched egg shells. Following egglaying onto pieces of cloth, adult female lice were removed and the cloth with the eggs washed with 1% sodium hypochlorite as for collection of ESWs. The eggs were then returned to the incubator and permitted to hatch. Typically 100 to 500 hatched egg shells were collected (0-2 hours post hatching), placed in a microfuge tube containing 200 μl of distilled water, incubated and sample treated as described above. For analysis, ESWs were resuspended in rehydration buffer (8 M Urea, 2% 3-[(3-cholamidopropyl) dimethylammonio]-1-propanesulfonate 2% Immobilised pH gradient buffer 3-10 (Amersham Phamacia Biotech, Uppsala, Sweden)) and used to rehydrate 7 cm Immobiline Dry strips pH 3-10 (Amersham Bioscience) overnight. Strips were transferred to the Multiphor II (Pharmacia, Sweden) apparatus, electrophoresed in the first dimension at 200 V for 1 min, increasing to 3,500 V over the next 90 min followed by 65 min at 3,500 V, equilibrated (6 M urea, 30% glycerol, 50 mM Tris pH 8.8 and 2% SDS) and then run on a 10% SDS-PAGE gel containing 0.1% gelatin for the second dimension. The gel was then run and developed as previously described.
10% SDS-PAGE gelatine substrate gels were loaded with freeze dried egg shell washings from 100 lice eggs that had been resuspended in 50 μL of non-reducing sample buffer with samples run at 10 μL per lane. […]

For a further test, the system named is lice eggs. The experiment in a line: Standard lice egg-hatching assay, commercial head lice products with rinse. The class given is in vivo. Conditions: for H (number of eggs successfully hatched) / Ph (number of eggs partly hatched): per replicate, products per manufacturer's recommendations, 1,10-phenanthroline 10 mM, rinsed. As for the experimental part: (§1) These three products were tested according to manufacturer's recommendations. Groups of eggs (24 hours old) were treated with the different products according to manufacturer's recommendations for the appropriate period of time (5-10 minutes) followed by a rinse for 1-2 minutes in 32° C. water. A positive controls (10 mM 1,10-phenanthroline) and two negative controls (no treatment and 20% Methanol) were also incorporated. Post exposure to the different products, the eggs were rinsed with warm water at 32° C. before being blotted dry on tissue paper and placed at 32° C., 70% RH and left to hatch. A second group of eggs, (48 hours old) were treated as previously described and also left to hatch. This process was repeated at 24 hour intervals on head lice eggs up to 120 hours post laying. This method of assaying inhibitors more closely mirrors the field situation where lice eggs will be at various stages of development on the head and permits the inhibitory effects to be observed on these different stages of the parasite.
as §1, with “two” for “three”, “Two” for “A positive controls (10 mM 1,10-phenanthroline) and two”, “ethanol)” for “Methanol)”, “were” for “were rinsed with warm water at 32° C. before being”

Test [3] has as its system Lice (L) and Plutella (P) eggs. Kind of test: whole plant or invertebrate. The conditions noted are these: read-out: Ovicidal activity %.

Take `Cc1ccc(-c2ccc(C)cn2)nc1` [5,5′-dimethyl-2,2′-dipyridyl]: in test [1], the “mite populations on the treated filter papers” value is recorded as “small decline”.

As for `c1cnc2c(c1)ccc1cccnc12` [1,10-phenanthroline, reference compound], the “protease activity of ESW, two dimensional gel electrophoresis” value in test [2] (gel incubated with 10 mM inhibitor) is “general reduction in protease activity in the 25-30 kDa region and a clear reduction in the proteases present around the 50 kDa region and above 75 kDa”. Further, the “protease activity of ESW on gelatin SDS-PAGE compared to untreated controls” value in test [2] (gel strips incubated with inhibitor: PMSF 5 mM, 1,10-phenanthroline 10 mM, EDTA 10 mM, pepstatin 5 μM, E-64 10 μM) is on record as “reduction in protease activity”. Besides, the “ovicidal activity across the different stages of lice egg hatching” value with lice eggs (24-120 hr post egg laying) is on record as “highly effective at inhibiting lice egg hatching”. In addition, the “H (number of eggs successfully hatched)” value in the test on lice eggs (treated 24 hr post egg laying) was 0; with lice eggs (treated 48 hr post egg laying), 0; in the test on lice eggs (treated 72 hr post egg laying) it was 0; in the test on lice eggs (treated 96 hr post egg laying), 0; with lice eggs (treated 120 hr post egg laying), 0 and 4 and 1. The “Ph (number of eggs partly hatched)” value in the test with lice eggs (treated 24 hr post egg laying), in the test on lice eggs (treated 48 hr post egg laying), in the test with lice eggs (treated 72 hr post egg laying), in the test with lice eggs (treated 96 hr post egg laying) and with lice eggs (treated 120 hr post egg laying) was 0 in each case. Also, the inhibition at 10000 µM in test [3] is 100%.
